According to patent publication US12678448B2, “Polymeric carriers for delivery of therapeutic agents” (priority 2020, dated 2026):
Entries after “also recorded” stand apart in the source; their conditions may differ.

Assays:
PGE2 = test: inhibition of PGE2 production by 5-ASA; type: cell-based; conditions: 5-ASA concentration 1 mM; read-out: production of PGE2 inhibited
Protocol: (§1) Prostaglandin E2 level analysis. To analyze the levels of prostaglandin E2 (PGE2) production in different cell lines, the cell culture mediums were collected after overnight incubation. To test PGE2 in the tumor tissues, the harvested tumors were homogenized, and the supernatants were obtained after centrifugation. PGE2 in the supernatants was detected using Abcam Prostaglandin E2 ELISA Kit.

[1] = tested on: 4T1.2, CT26, MDA-MB-468 and HCT116 tumor cell lines; test: MTT cytotoxicity of free 5-ASA, DOX and combination, 48 h; type: cell-based, murine, human; conditions: 5-ASA 0~1 mM, all four cell lines
Protocol: In vitro cytotoxicity. […] Cells were seeded in 96-well plates at a density of 5×10^3 cells/well with 100 μL of complete culture medium (DMEM or RPMI 1640 with 10% FBS and 1% streptomycin/penicillin). […] The absorbances of each well were measured at 590 nm and the cell viability was determined via the following formula: (ODtreated−ODblank)/(ODcontrol−ODblank)×100%.

[2] = tested on: PGE2 in CT26 tumor tissue; test: PGE2 level in tumor tissue, ELISA; design: species or system BALB/c mice; conditions: mouse, in vivo
Protocol: as §1

[3] = tested on: esophageal squamous cell carcinoma; conditions: cited from earlier work
[4] = in vitro DOX release by dialysis; type: physicochemical; conditions: free drug control
Protocol: In vitro drug release. The release of DOX from DOX-loaded PASA and FASA micelles at different pH was studied using a dialysis method. Briefly, 2 mL of PASA/DOX and FASA/DOX micelles containing 1 mg of DOX and 10 mg of polymer were placed in a dialysis bag (MWCO 3.5 kDa) and immersed into 40 mL of 0.1 M PBS solution containing 0.5% (w/v) Tween 80 at pH 5 and pH 7.4. The experiment was performed in an incubation shaker at 37° C. at 100 rpm. At selected time intervals, 10 μL solution in the dialysis bag and 1 mL medium outside the dialysis bag were withdrawn while same amount of fresh dialysis solution was added for replenishment. The concentration of DOX was examined by fluorescence spectrometry (excitation, 480 nm; emission, 510 to 620 nm). Free DOX was included as control.

KB cells [5] = test: cellular uptake, fluorescence microscopy and flow cytometry; type: cell-based, human
Protocol: Cellular uptake study. KB, 4T1.2, CT26, MDA-MB-468, HCT116 tumor cells and M2 macrophages were seeded to 6-well plates (3×10^5/well), respectively. After overnight incubation, the culture medium was replaced by fresh medium containing free DOX, PASA/DOX and FASA/DOX micelles with or without 100 μM free folate, respectively, at an equivalent DOX concentration of 6 μg/mL (carrier/DOX ratio: 10/1 (w/w)). After incubation for 30 min at 37° C., cells were washed with cold PBS and fixed with PBS containing 4% (w/v) formaldehyde. Nuclei were then stained by DAPI for 5 min. Cells were washed with cold PBS and observed under fluorescence microscope (BZ-X710, Japan).
Cellular uptake of different DOX formulations was also quantified by flow cytometry. KB tumor cells seeded in 6-well plates (3×10^5/well) were treated with various DOX formulations as described above at a DOX concentration of 6 μg/mL. Following incubation at 37° C. for 30 min, cells were washed with cold PBS, fixed in PBS containing 4% (w/v) formaldehyde, and resuspended in 500 μL PBS for flow cytometry analysis with CyAn ADP Analyzer (Beckman Coulter, Inc.). Fluorescence was examined at an excitation wavelength of 480 nm and an emission wavelength of 570 nm. 2×10^4 events were collected for each sample.

KB cells [6] = test: MTT cytotoxicity of DOX formulations, 30 min treatment then 48 h; type: cell-based, human; conditions: FASA up to 200 μg/mL
Protocol: In vitro cytotoxicity. Cytotoxicity assay was performed on different cancer cell lines (KB, 4T1.2, CT26, MDA-MB-468 and HCT116). Cells were seeded in 96-well plates at a density of 5×10^3 cells/well with 100 μL of complete culture medium (DMEM or RPMI 1640 with 10% FBS and 1% streptomycin/penicillin).
The cytotoxicity of PASA/DOX and FASA/DOX at a carrier/DOX ratio of 10/1 (w/w) were compared to free DOX and Doxil at various DOX concentrations. FASA control was added to cells at concentrations equivalent to the amounts of carrier in the corresponding DOX formulations. In order to confirm folate-mediated active targeting, free folate (100 μM) was added along with the FASA/DOX micelles. Cells were incubated for 30 min in drug-containing medium and then cultured for another 48 h in fresh medium prior to MTT assay.

4T1.2 tumor [7] = tested on: 4T1.2 tumor; design: species or system mice; conditions: mouse, in vivo, iv
Protocol: Tissue biodistribution. […] The mice were sacrificed and perfused at 24 h post injection. Tumors and major organs including heart, liver, spleen, lung and kidney were sectioned and observed under the fluorescence microscope (BZ-X710, Japan).

4T1.2 tumor [8] = test: in vivo therapeutic study, syngeneic breast cancer model; design: species or system BALB/c mice; conditions: 4T1.2 model, treatments on day 0, 3, 6, i.v.
From the text: In vivo therapeutic study. […] Female BALB/c mice (4-6 weeks) were s.c. inoculated with 4T1.2 or CT26 cells (5×10^5 cells per mouse). […] Tumor sizes were monitored every three days following the initiation of the treatment and calculated by the formula: (Length×Width^2)/2. Body weights were also followed as an indication of toxicity. After completion of the experiment, tumor and major organs were collected for hematoxylin and eosin (H&E) staining. Blood samples were collected for biochemical analysis of alanine transaminase (ALT) and aspartate aminotransferase (AST).

[9] = toxicity evaluation (body weight, AST/ALT, histology); type: in vivo, mice
Protocol: In vivo therapeutic study. In vivo antitumor efficacy of DOX-loaded PASA and FASA micelles was tested in syngeneic 4T1.2 mouse breast cancer model and CT26 mouse colon cancer model, respectively. Female BALB/c mice (4-6 weeks) were s.c. inoculated with 4T1.2 or CT26 cells (5×10^5 cells per mouse). When the tumor volume reached ~50 mm^3, mice were randomly divided into eight groups (n=5), and treated via tail vein injection with PBS, DOX, 5-ASA+DOX, Doxil, blank PASA micelles, blank FASA micelles, DOX-loaded PASA micelles or DOX-loaded FASA micelles, respectively once every three days for three times (polymer: 50 mg/kg, DOX: 5 mg/kg, 5-ASA: 20 mg/kg). Tumor sizes were monitored every three days following the initiation of the treatment and calculated by the formula: (Length×Width^2)/2. Body weights were also followed as an indication of toxicity. After completion of the experiment, tumor and major organs were collected for hematoxylin and eosin (H&E) staining. Blood samples were collected for biochemical analysis of alanine transaminase (ALT) and aspartate aminotransferase (AST).
Histopathological Analysis. Tumors and major organs including heart, liver, spleen, lung and kidney were excised and fixed in PBS containing 10% formaldehyde after completion of the in vivo therapy study, followed by embedment in paraffin. The paraffin embedded samples were sectioned into slices at 4 μm using an HM 325 Rotary Microtome. The tissue slices were then subjected to H&E staining for histopathological examination under a Zeiss Axiostar plus Microscope (PA, USA).
ALT and AST assessment. Mouse serum was obtained for blood biochemical assessment. ALT and AST were measured by ALT/SGPT or […] liqui-UV assay kit following manufacturer's protocols.

endometrial cancer cells = conditions: cited from earlier work

Question: Which results are given for `Nc1ccc(O)c(C(=O)O)c1` [5-ASA, 5-aminosalicylic acid]?
Answer: inhibition at 1000 µM (PGE2): 80%; anti-proliferation effect / cytotoxicity [1]: did not show any significant anti-proliferation effect; also recorded: minimal cytotoxicity; level of PGE2 in CT26 tumor tissue [2]: minimal effect

Question: Which “effect on 5-FU antitumor effects” value [3] does the source give for `Cc1ccc(-c2cc(C(F)(F)F)nn2-c2ccc(S(N)(=O)=O)cc2)cc1` [Celecoxib] here?
Answer: The value was “enhances 5-Fluorouracil (5-FU) antitumor effects”.

Question: With `COc1cccc2c1C(=O)c1c(O)c3c(c(O)c1C2=O)C[C@@](O)(C(=O)CO)C[C@@H]3O[C@H]1C[C@H](N)[C@H](O)[C@H](C)O1` [DOX, doxorubicin] as the compound, how does the “diffusion across the dialysis membrane” value [4] read?
Answer: The value was “rapidly diffused across the dialysis membrane”.

Question: And the cellular uptake (KB cells [5]; 30 min, DOX 6 μg/mL)?
Answer: Its cellular uptake is “efficiently taken up”.

Question: What about the “effect of free folate on cellular uptake” value (KB cells [5]; excess free folate 100 μM) of the same compound?
Answer: The value was “no effect”.

Question: What about the “cytotoxicity (inhibition of cell proliferation)” value (KB cells [6]) of the same compound?
Answer: The value was “inhibited the cell proliferation in a dose-dependent manner”.

Question: And the “DOX fluorescence signals in tumor tissues” value (4T1.2 tumor [7])?
Answer: Its value is “low level and scattered DOX fluorescence signals”.

Question: What about the “antitumor activity (tumor growth)” value (4T1.2 tumor [8]) of the same compound?
Answer: Its value is “modest antitumor activity”.

Question: What about the body weights ([9]; mouse, in vivo) of the same compound?
Answer: Its body weights is “slight decrease in body weights on day 9”.

Question: And the liver histology ([9]; mouse, in vivo)?
Answer: The liver histology was “hepatocellular vacuolation was found”.

Question: What about the “serum levels of AST / ALT” value ([9]; versus control group) of the same compound?
Answer: The value was “significantly higher than those in the control group”.

Question: Which “inhibition of cancer cells” value (endometrial cancer cells) does the source give for `CCc1cccc2c3c([nH]c12)C(CC)(CC(=O)O)OCC3` (centres unmarked) [Etodolac] here?
Answer: Its value is “dose dependent inhibition of endometrial cancer cells”.
